Assay results from the NIST ThermoML archive (doi:10.1021/je060271a).

Conditions: Liquid, Vibrating tube method

CCCCCCC(=O)OCC(COC(=O)CCCCCC)(COC(=O)CCCCCC)COC(=O)CCCCCC [pentaerythritol tetraheptanoate]
Conditions	mass density [kg/m3]
303.14 K, 15632 kPa	980.3
303.14 K, 15661 kPa	980.3
303.14 K, 15697 kPa	980.2
303.14 K, 15727 kPa	980.3
303.14 K, 15793 kPa	980.4
303.14 K, 15884 kPa	980.5
303.14 K, 15938 kPa	980.5
303.14 K, 16023 kPa	980.5
303.14 K, 16056 kPa	980.5
303.14 K, 16112 kPa	980.6
303.14 K, 16138 kPa	980.6
303.14 K, 16199 kPa	980.7
303.14 K, 16259 kPa	980.6
303.14 K, 16286 kPa	980.6
303.14 K, 16377 kPa	980.7
303.14 K, 16405 kPa	980.8
303.14 K, 16470 kPa	980.7
303.14 K, 16655 kPa	981
303.14 K, 16744 kPa	980.9
303.14 K, 16780 kPa	980.9
303.14 K, 16840 kPa	981
303.14 K, 16876 kPa	981
303.14 K, 17172 kPa	981.2
303.14 K, 17203 kPa	981.2
303.14 K, 17235 kPa	981.3
303.14 K, 17267 kPa	981.3
303.14 K, 17439 kPa	981.4
303.14 K, 17478 kPa	981.3
303.14 K, 17511 kPa	981.3
303.14 K, 17543 kPa	981.3
303.14 K, 17576 kPa	981.4
303.14 K, 17615 kPa	981.3
303.14 K, 17648 kPa	981.5
303.14 K, 17688 kPa	981.4
303.14 K, 17722 kPa	981.5
303.14 K, 18010 kPa	981.6
303.14 K, 18086 kPa	981.7
303.14 K, 18423 kPa	981.9
303.14 K, 18547 kPa	981.9
303.14 K, 18582 kPa	981.9
303.14 K, 18643 kPa	982
303.14 K, 18679 kPa	981.9
303.14 K, 18709 kPa	982
303.14 K, 18745 kPa	982.1
303.14 K, 18776 kPa	982
303.14 K, 18806 kPa	982
303.14 K, 18836 kPa	982.2
303.14 K, 18874 kPa	982.1
303.14 K, 18904 kPa	982.1
303.14 K, 19140 kPa	982.3
303.14 K, 19172 kPa	982.2
303.14 K, 19205 kPa	982.4
303.14 K, 19237 kPa	982.3
303.14 K, 19276 kPa	982.4
303.14 K, 19309 kPa	982.5
303.14 K, 19518 kPa	982.4
303.14 K, 19558 kPa	982.6
303.14 K, 19592 kPa	982.5
303.14 K, 19625 kPa	982.6
303.14 K, 19666 kPa	982.5
303.14 K, 19700 kPa	982.5
303.14 K, 19734 kPa	982.6
303.14 K, 19808 kPa	982.7
303.14 K, 19842 kPa	982.6
303.14 K, 19884 kPa	982.6
303.14 K, 20108 kPa	982.9
303.14 K, 20178 kPa	982.8
303.14 K, 20221 kPa	982.9
303.14 K, 20257 kPa	982.9
303.14 K, 20293 kPa	982.9
303.14 K, 20850 kPa	983.3
303.14 K, 20889 kPa	983.2
303.14 K, 21395 kPa	983.7
303.14 K, 21485 kPa	983.6
303.14 K, 21938 kPa	983.8
303.14 K, 21981 kPa	983.8
303.14 K, 22061 kPa	983.9
303.14 K, 22488 kPa	984.1
303.14 K, 22529 kPa	984.1
303.14 K, 22605 kPa	984.2
303.14 K, 22942 kPa	984.4
303.14 K, 22983 kPa	984.4
303.14 K, 23655 kPa	984.8
303.14 K, 23688 kPa	984.8
303.14 K, 23722 kPa	984.7
303.14 K, 23763 kPa	984.8
303.14 K, 24089 kPa	985
303.14 K, 24131 kPa	985.1
303.14 K, 24166 kPa	985.1
303.14 K, 24356 kPa	985.1
303.14 K, 28039 kPa	987.2
303.14 K, 29427 kPa	988
303.15 K, 11258 kPa	977.6
303.15 K, 11434 kPa	977.8
303.15 K, 11462 kPa	977.7
303.15 K, 11546 kPa	977.9
303.15 K, 11738 kPa	978
303.15 K, 13121 kPa	978.8
303.15 K, 13570 kPa	979
303.15 K, 13874 kPa	979.2
303.15 K, 13902 kPa	979.2
303.15 K, 13922 kPa	979.2
303.15 K, 13972 kPa	979.4
303.15 K, 14222 kPa	979.5
303.15 K, 14324 kPa	979.5
303.15 K, 14456 kPa	979.6
303.15 K, 14482 kPa	979.7
303.15 K, 14511 kPa	979.6
303.15 K, 14536 kPa	979.7
303.15 K, 14567 kPa	979.7
303.15 K, 14592 kPa	979.6
303.15 K, 14618 kPa	979.8
303.15 K, 14643 kPa	979.6
303.15 K, 14669 kPa	979.7
303.15 K, 14835 kPa	979.7
303.15 K, 14866 kPa	979.8
303.15 K, 14893 kPa	979.8
303.15 K, 14920 kPa	979.9
303.15 K, 14947 kPa	979.9
303.15 K, 14979 kPa	979.9
303.15 K, 15006 kPa	979.9
303.15 K, 15179 kPa	980
303.15 K, 15268 kPa	980.1
303.15 K, 15330 kPa	980.1
303.15 K, 15358 kPa	980.1
303.15 K, 15511 kPa	980.2
303.15 K, 15757 kPa	980.3
303.15 K, 15823 kPa	980.4
303.15 K, 15852 kPa	980.4
303.15 K, 15911 kPa	980.5
303.15 K, 15969 kPa	980.5
303.15 K, 15996 kPa	980.5
303.15 K, 16084 kPa	980.4
303.15 K, 16171 kPa	980.5
303.15 K, 16226 kPa	980.7
303.15 K, 16314 kPa	980.7
303.15 K, 16348 kPa	980.7
303.15 K, 16441 kPa	980.7
303.15 K, 16499 kPa	980.7
303.15 K, 16527 kPa	980.8
303.15 K, 16556 kPa	980.8
303.15 K, 16591 kPa	980.8
303.15 K, 16620 kPa	980.9
303.15 K, 16684 kPa	980.8
303.15 K, 16714 kPa	981
303.15 K, 16809 kPa	980.9
303.15 K, 16906 kPa	981
303.15 K, 16937 kPa	981.1
303.15 K, 16967 kPa	981.1
303.15 K, 17004 kPa	981
303.15 K, 17035 kPa	981
303.15 K, 17066 kPa	981.1
303.15 K, 17103 kPa	981.1
303.15 K, 17134 kPa	981.1
303.15 K, 17305 kPa	981.2
303.15 K, 17337 kPa	981.2
303.15 K, 17369 kPa	981.4
303.15 K, 17407 kPa	981.3
303.15 K, 17756 kPa	981.5
303.15 K, 17796 kPa	981.5
303.15 K, 17831 kPa	981.5
303.15 K, 17865 kPa	981.5
303.15 K, 17899 kPa	981.6
303.15 K, 17940 kPa	981.7
303.15 K, 17975 kPa	981.7
303.15 K, 18052 kPa	981.6
303.15 K, 18128 kPa	981.7
303.15 K, 18164 kPa	981.8
303.15 K, 18201 kPa	981.7
303.15 K, 18237 kPa	981.8
303.15 K, 18282 kPa	981.7
303.15 K, 18319 kPa	981.9
303.15 K, 18356 kPa	981.8
303.15 K, 18394 kPa	981.8
303.15 K, 18458 kPa	981.9
303.15 K, 18488 kPa	981.8
303.15 K, 18517 kPa	981.8
303.15 K, 18612 kPa	982
303.15 K, 18935 kPa	982.2
303.15 K, 18973 kPa	982.2
303.15 K, 19005 kPa	982.2
303.15 K, 19038 kPa	982.3
303.15 K, 19070 kPa	982.2
303.15 K, 19102 kPa	982.2
303.15 K, 19342 kPa	982.4
303.15 K, 19381 kPa	982.5
303.15 K, 19414 kPa	982.5
303.15 K, 19448 kPa	982.5
303.15 K, 19484 kPa	982.6
303.15 K, 19774 kPa	982.5
303.15 K, 19918 kPa	982.7
303.15 K, 19954 kPa	982.7
303.15 K, 19989 kPa	982.8
303.15 K, 20030 kPa	982.7
303.15 K, 20066 kPa	982.9
303.15 K, 20143 kPa	982.9
303.15 K, 20336 kPa	982.9
303.15 K, 20372 kPa	982.9
303.15 K, 20409 kPa	983
303.15 K, 20454 kPa	983
303.15 K, 20490 kPa	983.1
303.15 K, 20527 kPa	983.1
303.15 K, 20572 kPa	983.1
303.15 K, 20609 kPa	983.2
303.15 K, 20647 kPa	983.1
303.15 K, 20691 kPa	983.2
303.15 K, 20729 kPa	983.3
303.15 K, 20767 kPa	983.1
303.15 K, 20812 kPa	983.2
303.15 K, 20936 kPa	983.2
303.15 K, 20976 kPa	983.4
303.15 K, 21014 kPa	983.4
303.15 K, 21054 kPa	983.3
303.15 K, 21101 kPa	983.4
303.15 K, 21140 kPa	983.4
303.15 K, 21179 kPa	983.5
303.15 K, 21227 kPa	983.4
303.15 K, 21267 kPa	983.4
303.15 K, 21314 kPa	983.5
303.15 K, 21354 kPa	983.4
303.15 K, 21444 kPa	983.6
303.15 K, 21526 kPa	983.6
303.15 K, 21576 kPa	983.5
